Source: patent US8802597B2, “Herbicidal pyrimidines” (E I du Pont de Nemours and Company, priority 2003, dated 2014)

How the values were obtained:
Format in all cases: in vivo
[1] = tested on: winter barley (Hordeum vulgare); assay: Test D pre/postemergence; details: scale 0 to 100 (100 = complete control)
Summary of the method: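 Pre: seeds sown, then treated. Post: plants at 1- to 4-leaf stage (2 to 18 cm) sprayed at the same time. Chemicals formulated in a non-phytotoxic solvent mixture including surfactant. After 15 to 25 days under controlled growth conditions, response rated visually from 0 (no effect) to 100 (complete control).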

[2] = tested on: common groundsel (Senecio vulgaris); assay: Test G pre/postemergence
Summary of the method: (§1)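 Visual scores from 0 (no effect) to 100 (complete control) were assigned relative to untreated controls 12 to 21 days after treatment. Compounds, formulated in a non-phytotoxic solvent mixture with surfactant, were applied preemergence to planted seed or postemergence to plants at the 1- to 4-leaf stage (2 to 18 cm).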

[3] = tested on: common sowthistle (Sonchus oleraceous); assay: Test G pre/postemergence
Summary of the method: as §1

[4] = tested on: purple nutsedge (Cyperus rotundus); assay: Test G pre/postemergence
Summary of the method: as §1

[5] = tested on: Canada horseweed (Conyza canadensis); assay: Test G pre/postemergence
Summary of the method: as §1

[6] = tested on: grape (Vitus vinifera) vines; assay: Test G post-directed application; details: 1500 g ai/ha, scale 0 to 100
Protocol: (§2) At a different time, established container-grown grape (Vitus vinifera) vines, and olive (Olea europaea) and orange (Citrus sinensis) trees were treated with some of the test chemicals formulated in the same manner and applied to the soil surface and the lower 5 cm of the plant vines or trunks (post-directed application). Plants ranged in height from 30 to 100 cm. The applications were made using a hand sprayer delivering a volume of 990 L/ha. Treated plants and controls were maintained in a greenhouse for 28 days, after which time the treated plants were compared to controls and visually evaluated.
(§3) Plant response ratings, summarized in Table G, are based on a scale of 0 to 100 where 0 is no effect and 100 is complete control. A dash (-) response means no test result.

[7] = tested on: olive (Olea europaea) trees; assay: Test G post-directed application; details: 900 g ai/ha, scale 0 to 100
Protocol: as §2, §3

[8] = tested on: orange (Citrus sinensis) trees; assay: Test G post-directed application; details: 1500 g ai/ha, scale 0 to 100
Protocol: as §2, §3

[9] = tested on: sugarcane (Saccharum officinarum); assay: Test G sugarcane pre/postemergence; details: Postemergence, scale 0 to 100
Text: Also at a different time, seed pieces (nodes) of sugarcane (Saccharum officinarum) were planted and treated preemergence and/or postemergence with some of the test chemicals formulated in the same manner. Treated plants and controls were maintained in a greenhouse for 14 days, after which time the treated plants were compared to controls and visually evaluated.
as §3

[10] = tested on: sulfonylurea herbicide-resistant (SU-resistant) catchweed bedstraw (GALAP; Galium aparine); assay: Test K postemergence; details: 15 days
Protocol: Seeds of plant species selected from sulfonylurea herbicide-susceptible (SU-susceptible) and sulfonylurea herbicide-resistant (SU-resistant) catchweed bedstraw (GALAP; Galium aparine) and wheat (TRZAW; Triticum aestivum) were treated with postemergence applications of test chemicals formulated in a non-phytotoxic solvent mixture which included a surfactant. Plants were treated at the 2-3 leaf stage and 2 whorl stage for wheat and catchweed bedstraw, respectively. Treated plants and controls were maintained in a controlled growth environment for 15 days after which time all species were compared to controls and visually evaluated. Plant response ratings, summarized in Table K, are based on a scale of 0 to 100 where 0 is no effect and 100 is complete control. A dash (-) response means no test result.

[11] = Postemergence, 16 g ai/ha, scale 0 to 100
[12] = Postemergence, 31 g ai/ha, scale 0 to 100
[13] = Postemergence, 62 g ai/ha, scale 0 to 100
[14] = Postemergence, 125 g ai/ha, scale 0 to 100
[15] = Preemergence, 31 g ai/ha, scale 0-100
[16] = Preemergence, 250 g ai/ha, scale 0-100
[17] = Postemergence, 250 g ai/ha, scale 0 to 100
[18] = Preemergence, 16 g ai/ha, scale 0-100
[19] = Preemergence, 62 g ai/ha, scale 0-100
[20] = Preemergence, 125 g ai/ha, scale 0-100
[21] = Preemergence, 500 g ai/ha, scale 0 to 100
[22] = Postemergence, 8 g ai/ha, scale 0 to 100
[23] = Preemergence, 8 g ai/ha, scale 0-100

CCOC(=O)Cc1nc(C2CC2)nc(N=CN(C)C)c1Br [Compound 33]
Plant response rating, Barley ([1]; Postemergence, 62 g ai/ha): 45
Plant response rating, Barley ([1]; Postemergence, 125 g ai/ha): 45
Plant response rating, Barley ([1]; Postemergence, 250 g ai/ha): 45
Plant response rating, Barley ([1]; Preemergence, 62 g ai/ha): 10
Plant response rating, Barley ([1]; Preemergence, 125 g ai/ha): 35
Plant response rating, Barley ([1]; Preemergence, 250 g ai/ha): 45

Nc1nc(C2CC2)nc(C(=O)OCc2ccccc2)c1Br [Compound 22, phenylmethyl 6-amino-5-bromo-2-cyclopropyl-4-pyrimidinecarboxylate]
Plant response rating, Groundsel [2, 11]: 65
Plant response rating, Groundsel [2, 12]: 65
Plant response rating, Groundsel [2, 13]: 65
Plant response rating, Groundsel [2, 14]: 85
Plant response rating, Groundsel [2, 15]: 0
Plant response rating, Groundsel [2, 16]: 50
Plant response rating, Sowthistle [3, 17]: 100
Plant response rating, Sowthistle [3, 11]: 75
Plant response rating, Sowthistle [3, 12]: 85
Plant response rating, Sowthistle [3, 13]: 95
Plant response rating, Sowthistle [3, 14]: 100
Plant response rating, Sowthistle [3, 18]: 35
Plant response rating, Sowthistle [3, 15]: 75
Plant response rating, Sowthistle [3, 19]: 90
Plant response rating, Sowthistle [3, 20]: 100
Plant response rating, Sowthistle [3, 16]: 100
Plant response rating, Nutsedge, Purple [4, 17]: 15
Plant response rating, Nutsedge, Purple [4, 11]: 0
Plant response rating, Nutsedge, Purple [4, 12]: 0
Plant response rating, Nutsedge, Purple [4, 13]: 0
Plant response rating, Nutsedge, Purple [4, 14]: 0
Plant response rating, Nutsedge, Purple [4, 18]: 0
Plant response rating, Nutsedge, Purple [4, 15]: 0
Plant response rating, Nutsedge, Purple [4, 19]: 30
Plant response rating, Nutsedge, Purple [4, 20]: 40
Plant response rating, Nutsedge, Purple [4, 16]: 50

CCOC(=O)c1nc(C2CC2)nc(N)c1Cl [Compound 4, ethyl 6-amino-5-chloro-2-cyclopropyl-4-pyrimidinecarboxylate]
Plant response rating, Horseweed [5, 19]: 100
Plant response rating, Horseweed [5, 20]: 100
Plant response rating, Horseweed [5, 16]: 100
Plant response rating, Horseweed [5, 21]: 100
Plant response rating, Groundsel [2, 19]: 95
Plant response rating, Groundsel [2, 20]: 95
Plant response rating, Groundsel [2, 16]: 100
Plant response rating, Groundsel [2, 21]: 100
Plant response rating, Sowthistle [3, 19]: 100
Plant response rating, Sowthistle [3, 20]: 100
Plant response rating, Sowthistle [3, 16]: 100
Plant response rating, Sowthistle [3, 21]: 100
Plant response rating, Nutsedge, Purple [4, 19]: 40
Plant response rating, Nutsedge, Purple [4, 20]: 100
Plant response rating, Nutsedge, Purple [4, 16]: 100
Plant response rating, Nutsedge, Purple [4, 21]: 100
Plant response rating, Grape [6]: 100
Plant response rating, Olive [7]: 50
Plant response rating, Orange [8]: 75

Nc1nc(C2CC2)nc(C=O)c1Br [Compound 26]
Plant response rating, Barley ([1]; Postemergence, 125 g ai/ha): 45
Plant response rating, Barley ([1]; Postemergence, 250 g ai/ha): 50
Plant response rating, Barley ([1]; Preemergence, 125 g ai/ha): 25
Plant response rating, Barley ([1]; Preemergence, 250 g ai/ha): 35

COC(=O)c1nc(C2CC2)nc(NO)c1Br [Compound 35]
Plant response rating, Barley ([1]; Postemergence, 62 g ai/ha): 65
Plant response rating, Barley ([1]; Postemergence, 125 g ai/ha): 65
Plant response rating, Barley ([1]; Postemergence, 250 g ai/ha): 70
Plant response rating, Barley ([1]; Preemergence, 62 g ai/ha): 40
Plant response rating, Barley ([1]; Preemergence, 125 g ai/ha): 45
Plant response rating, Barley ([1]; Preemergence, 250 g ai/ha): 45

COC(=O)c1nc(C2CC2)nc(N)c1Cl [Compound 9, methyl 6-amino-5-chloro-2-cyclopropyl-4-pyrimidinecarboxylate]
Plant response rating, Horseweed [5, 19]: 100
Plant response rating, Horseweed [5, 20]: 100
Plant response rating, Horseweed [5, 16]: 100
Plant response rating, Horseweed [5, 21]: 100
Plant response rating, Sugarcane ([9]; 250 g ai/ha): 7
Plant response rating, Sugarcane ([9]; 500 g ai/ha): 17
Plant response rating, Sugarcane ([9]; 31 g ai/ha): 0
Plant response rating, Sugarcane ([9]; 62 g ai/ha): 0
Plant response rating, Sugarcane ([9]; 125 g ai/ha): 0
Plant response rating (0 to 100 scale) ([10]; 4 g a.i./ha): 100
Plant response rating (0 to 100 scale) ([10]; 8 g a.i./ha): 100
Plant response rating (0 to 100 scale) ([10]; 16 g a.i./ha): 100
Plant response rating (0 to 100 scale) ([10]; 31 g a.i./ha): 100
Plant response rating (0 to 100 scale) ([10]; 62 g a.i./ha): 100
Plant response rating (0 to 100 scale) ([10]; 125 g a.i./ha): 100

COC(=O)c1nc(C2CC2C)nc(N)c1Br (stereo not drawn) [Compound 28]
Plant response rating, Barley ([1]; Postemergence, 62 g ai/ha): 20
Plant response rating, Barley ([1]; Postemergence, 125 g ai/ha): 40
Plant response rating, Barley ([1]; Postemergence, 250 g ai/ha): 40
Plant response rating, Barley ([1]; Preemergence, 62 g ai/ha): 10
Plant response rating, Barley ([1]; Preemergence, 125 g ai/ha): 25
Plant response rating, Barley ([1]; Preemergence, 250 g ai/ha): 45

Nc1nc(C2CC2)nc(C(=O)[O-])c1Cl.[Na+] [Compound 77, 6-amino-5-chloro-2-cyclopropyl-4-pyrimidinecarboxylic acid monosodium salt]
Plant response rating, Horseweed [5, 17]: 80
Plant response rating, Horseweed [5, 11]: 40
Plant response rating, Horseweed [5, 12]: 50
Plant response rating, Horseweed [5, 13]: 75
Plant response rating, Horseweed [5, 14]: 80
Plant response rating, Horseweed [5, 18]: 70
Plant response rating, Horseweed [5, 15]: 90
Plant response rating, Horseweed [5, 19]: 100
Plant response rating, Horseweed [5, 20]: 100
Plant response rating, Horseweed [5, 16]: 100
Plant response rating, Groundsel [2, 17]: 100
Plant response rating, Groundsel [2, 11]: 40
Plant response rating, Groundsel [2, 12]: 75
Plant response rating, Groundsel [2, 13]: 80
Plant response rating, Groundsel [2, 14]: 95
Plant response rating, Groundsel [2, 18]: 50
Plant response rating, Groundsel [2, 15]: 60
Plant response rating, Groundsel [2, 20]: 80
Plant response rating, Groundsel [2, 16]: 100
Plant response rating, Sowthistle [3, 17]: 95
Plant response rating, Sowthistle [3, 11]: 75
Plant response rating, Sowthistle [3, 12]: 90
Plant response rating, Sowthistle [3, 13]: 90
Plant response rating, Sowthistle [3, 14]: 95
Plant response rating, Sowthistle [3, 18]: 80
Plant response rating, Sowthistle [3, 15]: 100
Plant response rating, Sowthistle [3, 19]: 100
Plant response rating, Sowthistle [3, 20]: 100
Plant response rating, Sowthistle [3, 16]: 100
Plant response rating, Nutsedge, Purple [4, 17]: 40
Plant response rating, Nutsedge, Purple [4, 11]: 0
Plant response rating, Nutsedge, Purple [4, 12]: 0
Plant response rating, Nutsedge, Purple [4, 13]: 0
Plant response rating, Nutsedge, Purple [4, 14]: 0
Plant response rating, Nutsedge, Purple [4, 18]: 100
Plant response rating, Nutsedge, Purple [4, 15]: 100
Plant response rating, Nutsedge, Purple [4, 19]: 100
Plant response rating, Nutsedge, Purple [4, 20]: 100
Plant response rating, Nutsedge, Purple [4, 16]: 100

CCOC(=O)c1nc(-c2ccc(Cl)cc2)nc(N)c1Cl [Compound 64, ethyl 6-amino-5-chloro-2-(4-chlorophenyl)-4-pyrimidinecarboxylate]
Plant response rating, Horseweed [5, 22]: 60
Plant response rating, Horseweed [5, 11]: 60
Plant response rating, Horseweed [5, 12]: 60
Plant response rating, Horseweed [5, 13]: 60
Plant response rating, Horseweed [5, 23]: 0
Plant response rating, Horseweed [5, 18]: 75
Plant response rating, Horseweed [5, 15]: 95
Plant response rating, Horseweed [5, 19]: 95
Plant response rating, Groundsel [2, 22]: 0
Plant response rating, Groundsel [2, 11]: 0
Plant response rating, Groundsel [2, 12]: 0
Plant response rating, Groundsel [2, 13]: 0
Plant response rating, Groundsel [2, 23]: 0
Plant response rating, Groundsel [2, 18]: 0
Plant response rating, Groundsel [2, 15]: 10
Plant response rating, Groundsel [2, 19]: 40
Plant response rating, Sowthistle [3, 22]: 65
Plant response rating, Sowthistle [3, 11]: 80
Plant response rating, Sowthistle [3, 12]: 80
Plant response rating, Sowthistle [3, 13]: 80
Plant response rating, Sowthistle [3, 23]: 0
Plant response rating, Sowthistle [3, 18]: 0
Plant response rating, Sowthistle [3, 15]: 35
Plant response rating, Sowthistle [3, 19]: 90
Plant response rating, Nutsedge, Purple [4, 22]: 0
Plant response rating, Nutsedge, Purple [4, 11]: 35
Plant response rating, Nutsedge, Purple [4, 12]: 35
Plant response rating, Nutsedge, Purple [4, 13]: 35
Plant response rating, Nutsedge, Purple [4, 23]: 0
Plant response rating, Nutsedge, Purple [4, 18]: 0
Plant response rating, Nutsedge, Purple [4, 15]: 0
Plant response rating, Nutsedge, Purple [4, 19]: 0
